Read-outs that look alike come from different tables or passages of the source.

Here are results for one molecule from paper PMC12073402, “A Selective MAP3K1 Inhibitor Facilitates Discovery of NPM1 as a Member of the Network” (Molecules, 2025).

Data set [1] is described as follows: Pharmacokinetic studies, oral and intravenous dosing. The settings on record: for MRT inf: read-out: MRT 0-∞. In kind it is in vivo, CD1 mice. How it is done:
Next, we conducted pharmacokinetic (PK) studies with 51-106. Briefly, mice were dosed either intravenously (IV) or orally with 10 mg/kg of 51-106 and sampled at 0.083, 0.25, 0.5, 1, 2, 4, 8, and 24 h. […] This was accomplished by strategic placement of fluorine atoms at metabolically vulnerable sites on the molecule.
Pharmacokinetic studies (10 mg/kg oral and intravenous dosing) were performed following previously reported methods. Sample analysis was performed by liquid chromatography–tandem mass spectrometry (SCIEX QTRAP 4000 LC-MS/MS System). The pharmacokinetic parameters were determined using non-compartmental analyses module of WinNonlin 1.5.

A further data set relates to NPM1 phosphorylation. The experiment in a line: TMT phosphoproteomics of PANC-1 cells. Particulars: 10 μM, 2 h, versus DMSO. Format: cell-based. How it is done: Next, we wanted to assess the effects of 51-106 on the early phosphorylation events associated with transient MAP3K1 inhibition. To this end, we conducted global proteomic and phosphoproteomic analyses of PANC-1 cells treated with varying doses of 51-106 (10, 5, 2.5, 1.25, 0.625, and 0 μM) for 2 h using a tandem mass tag (TMT)-based multiplexing strategy (Figure 4). Across all conditions, a total of 7028 proteins and 22,843 phosphosites were quantified and successfully mapped to known protein sequences. Significance cutoffs of >0.32 or <−0.32 log2FC of 51-106 compared to DMSO and FDR < 0.05 were used to analyze differences in total and phosphorylated protein levels between treatment and control samples using RokaiXplorer (Supplementary Figure S3a).
PANC-1 (1 × 10^7) cells were seeded into T125 flasks (FB012939, Fisher Scientific) and allowed to attach overnight in a humidified 5% CO2 incubator at 37 °C. Drug working solutions were prepared from 10 mM DMSO stocks. 51-106 was added in 4 dilutions, in triplicates. […]
Global proteome and phosphopeptide-enriched fractions were analyzed on an Orbitrap Eclipse mass spectrometer using UltiMate 3000 RSLC nano system for online separation of peptides in trap and elute configuration (Thermo Scientific, San Jose, CA, USA). […] Survey MS scans were recorded in Orbitrap mass analyzer with 375 to 1500 m/z scan range at 120,000 resolution. […]

Setting [2] is: mouse, in vivo, CD1 mice, 10 mg/kg, Intravenous.
Setting [3] is: mouse, in vivo, CD1 mice, 10 mg/kg, Oral.

For `Cn1cc(-c2cnc3ccc(NC(=O)Nc4ccc(F)c(C(F)(F)F)c4)cc3n2)cn1` [51-106, 1-(4-Fluoro-3-(trifluoromethyl)phenyl)-3-(3-(1-methyl-1H-pyrazol-4-yl)quinoxalin-6-yl)urea], in data set [1] (51-106 compared to analog 84), the “improvement of oral bioavailability” value is given as ~ 3.5 fold and the “improvement of t1/2 in mice” value is recorded as ~ 1.4 fold. Moreover, the bioavailability in data set [1] (CD1, mouse, in vivo, po, 10 mg/kg, CD1 mice, 10 mg/kg, Oral, read-out: Bioavailability (%F)) was found to be 62.3%. In addition, the “Bioavailability (%F)” value in data set [1] (CD1 mice, 10 mg/kg, Oral) is approximately 62%. In data set [1] (setting [2]), the AUC(0-inf) came out at 9120 ± 755 ng·h/mL, the AUC(0-t) is 8960 ± 812 ng·h/mL, the Cmax is 4380 ± 447 ng/mL and the half-life is 1.7 ± 0.3 h. The MRT inf in data set [1] (setting [2]) turned out to be 2.2 ± 0.3 h. Also, the Vd in data set [1] (mouse, in vivo, CD1 mice, 10 mg/kg, Intravenous, read-out: Vss) came out at 2.5 ± 0.3 L/kg. Moreover, in data set [1] (setting [3]), the AUC(0-inf) worked out at 5680 ± 1930 ng·h/mL, the AUC(0-t) was 4580 ± 2500 ng·h/mL, the peak level (Cmax) was 689 ± 190 ng/mL and the Tmax was 2.7 h. Besides, in data set [1] (setting [3]), the half-life is 3.5 h and the MRT inf turned out to be 6.4 ± 1.5 h. The “decrease in NPM1 S227 phosphorylation” value with NPM1 phosphorylation was 3.5 fold.

The term bioavailability denotes the share of a dose that reaches the circulation, judged against a reference dose that is usually intravenous. One may read the AUC(0-inf) as the area under the concentration-time curve extrapolated to infinity. A word on the AUC(0-t): it is the area under the concentration-time curve up to a stated or last time point. Read a low AUC(0-t) as less exposure. Usually Cmax stands for the maximum level reached in the sampled fluid or tissue. In general, half-life refers to the time in which the quantity being followed falls by half. The term Tmax denotes the time at which the peak concentration occurs.
